test system: T1, FanCXE1; test: colorimetric naphthol release (DBLS reagent, […] nm); format: biochemical, Fragaria x ananassa; conditions: optimum pH (7-7.5) and temperature (25-30°C), 20 min; semipurified GST fusion
T1 construct: full-length, 981 bp ORF (326 residues from ORF length), 37 kDa; N-terminal GST fusion (pGEX-4T-1), tag kept, 64 kDa; E. coli, semipurified on GST-sepharose; Gly-82-Gly-83 oxyanion hole

Structure (SMILES)	Km
CC(=O)Oc1cccc2ccccc12 [α-Naphthyl acetate]	678 ± 170 µM
CCCC(=O)Oc1cccc2ccccc12 [α-Naphthyl butyrate]	1580 ± 190 µM
CCCCCC(=O)Oc1ccc2ccccc2c1 [β-Naphthyl hexanoate]	572 ± 250 µM
